{"source": "ChEMBL document CHEMBL1132934", "about": "“Multivariate data analysis using D-optimal designs, partial least squares, and response surface modeling: A directional approach for the analysis of farnesyltransferase inhibitors” (J Med Chem, 2000)", "key": {"[1]": {"target": "T1, Protein farnesyltransferase (Homo sapiens, UniProt P49354+P49356)", "assay": "Inhibition of farnesyltransferase by Ras/SPA assay", "format": "protein-complex assay"}, "[2]": {"assay": "Binding affinity against Ras SPA enzyme"}, "[3]": {"assay": "Binding affinity against Ras protein"}, "[4]": {"target": "T1, Protein farnesyltransferase", "assay": "Inhibition of Farnesyltransferase", "format": "protein-complex assay"}, "HCT-116 [5]": {"test_system": "HCT-116", "assay": "(§1) […] inhibition of cellular activity in HCT116 colony formation assay", "format": "functional", "conditions": "Homo sapiens"}, "HCT-116 [6]": {"test_system": "HCT-116", "assay": "as §1", "format": "functional, Homo sapiens"}, "HCT-116 [7]": {"test_system": "HCT-116", "assay": "[…] inhibition of cellular activity in HCT116 colony formation assay; AI means almost inactive", "format": "functional", "conditions": "Homo sapiens"}, "HCT-116 [8]": {"test_system": "HCT-116", "assay": "[…] inhibition of cellular activity in HCT116 colony formation assay; CA means cytostatic activity", "format": "functional", "conditions": "Homo sapiens"}}, "note": "Activity calls are given as the source filed them. No cut-off for these calls is given here.", "data": [{"smiles": "COc1ccccc1CC(=O)N1C[C@H]2[C@@]3(c4ccccc4)CC[C@](O)(c4ccccc43)[C@@]2(C(=O)O)C1", "values": [{"measurement": "Ki", "setting": "[1]", "value": 250, "unit": "nM"}]}, {"smiles": "COc1ccccc1CC(=O)N1C[C@H]2[C@@]3(c4ccccc4)CC[C@H](c4ccccc43)[C@@]2(C(=O)NCC(=O)O)C1", "values": [{"measurement": "Ki", "setting": "[1]", "value": 738, "unit": "nM"}]}, {"smiles": "COc1ccccc1CC(=O)N1C[C@H]2[C@@]3(c4ccccc4)CC[C@H](c4ccccc43)[C@@]2(NC(=O)OCc2ccccc2)C1", "values": [{"measurement": "Ki", "setting": "[2]", "value": 100000, "unit": "nM"}]}, {"smiles": "COCCCC(=O)N1C[C@H]2[C@@]3(c4ccccc4)CC[C@H](c4ccccc43)[C@@]2(C(=O)O)C1", "values": [{"measurement": "Ki", "setting": "[2]", "value": 100000, "unit": "nM"}]}, {"smiles": "COc1ccccc1CC(=O)N1C[C@H]2[C@@]3(c4ccccc4)CC[C@H](c4ccccc43)[C@@]2(C(=O)O)C1", "values": [{"measurement": "Ki", "setting": "[1]", "value": 140, "unit": "nM"}]}, {"smiles": "O=C(Cc1ccccc1OCc1ccccc1)N1C[C@H]2[C@@]3(c4ccccc4)CC[C@H](c4ccccc43)[C@@]2(C(=O)O)C1", "values": [{"measurement": "Ki", "setting": "[1]", "value": 32000, "unit": "nM"}, {"measurement": "Ki", "setting": "[3]", "value": 32000, "unit": "nM"}]}, {"smiles": "COc1ccccc1CC(=O)N1C[C@H]2[C@@]3(c4ccccc4)CC[C@H](c4c(O)cccc43)[C@@]2(C(=O)O)C1", "values": [{"measurement": "Ki", "setting": "[1]", "value": 50000, "unit": "nM"}]}, {"smiles": "COc1ccccc1CC(=O)N1C[C@H]2[C@@]3(c4ccccc4)CC[C@H](c4ccccc43)[C@@]2(C(=O)NN)C1", "values": [{"measurement": "Ki", "setting": "[2]", "value": 2450, "unit": "nM"}]}, {"smiles": "COc1ccccc1CC(=O)N1C[C@H]2[C@@]3(c4ccccc4)CC[C@H](c4ccccc43)[C@@]2(C(=O)O)C1", "note": "(racemic)", "values": [{"measurement": "IC50", "setting": "[4]", "value": 200, "unit": "nM"}, {"measurement": "IC50", "setting": "HCT-116 [5]", "value": "> 10000", "unit": "nM"}]}, {"smiles": "C=C(C(=O)N1C[C@H]2[C@@]3(c4ccc(OCC(=O)O)cc4)CC[C@H](c4ccccc43)[C@@]2(C(=O)O)C1)c1ccccc1OC", "values": [{"measurement": "Ki", "setting": "[1]", "value": 25500, "unit": "nM"}]}, {"smiles": "COc1ccccc1CC(=O)N1C[C@H]2[C@@]3(c4ccccc4)CC[C@H](c4ccccc43)[C@@]2(C(=O)N[C@H](C)c2ccccc2)C1", "values": [{"measurement": "Ki", "setting": "[2]", "value": 2080, "unit": "nM"}]}, {"smiles": "CONC(=O)[C@]12CN(C(=O)Cc3ccccc3OC)C[C@H]1[C@@]1(c3ccccc3)CC[C@@H]2c2ccccc21", "values": [{"measurement": "Ki", "setting": "[1]", "value": 420, "unit": "nM"}]}, {"smiles": "C=C(C(=O)N1C[C@H]2[C@@]3(c4ccc(Br)cc4)CC[C@H](c4ccccc43)[C@@]2(C(=O)O)C1)c1ccccc1OC", "values": [{"measurement": "IC50", "setting": "HCT-116 [6]", "value": 59, "unit": "nM"}]}, {"smiles": "C=C(C(=O)N1C[C@H]2[C@@]3(c4ccccc4)CC[C@H](c4ccccc43)[C@@]2(C(=O)O)C1)c1ccccc1OC", "note": "(racemic)", "values": [{"measurement": "AI", "setting": "HCT-116 [7]", "value": "inactive"}, {"measurement": "Ki", "setting": "[1]", "value": 25, "unit": "nM"}, {"measurement": "IC50", "setting": "HCT-116 [5]", "value": 720, "unit": "nM"}]}, {"smiles": "C=C(C(=O)N1C[C@H]2[C@@]3(c4ccc(C)cc4)CC[C@H](c4ccccc43)[C@@]2(C(=O)O)C1)c1ccccc1OC", "note": "(racemic)", "values": [{"measurement": "IC50", "setting": "[4]", "value": 8, "unit": "nM"}, {"measurement": "IC50", "setting": "HCT-116 [5]", "value": 45, "unit": "nM"}, {"measurement": "CA", "setting": "HCT-116 [8]", "value": "cytostatic activity"}]}, {"smiles": "COc1ccccc1CC(=O)N1C[C@@H]2[C@@H]3CC[C@@](c4ccccc4)(c4ccccc43)[C@@H]2C1", "values": [{"measurement": "Ki", "setting": "[1]", "value": 40000, "unit": "nM"}]}, {"smiles": "C=C(C(=O)N1C[C@H]2[C@@]3(c4ccc5c(c4)CCO5)CC[C@H](c4ccccc43)[C@@]2(C(=O)O)C1)c1ccccc1OC", "values": [{"measurement": "Ki", "setting": "[1]", "value": 420, "unit": "nM"}]}]}
